From patent US12146143B2, “Method for producing transformed plant and transformation agent” (priority 2019, dated 2024) come the findings set out here.

The test system of assay [1] is calluses of the mutant ghy. The assay can be described thus: Redifferentiation from calluses with plant hormones. Format: cell-based, Chenopodium quinoa. As to the method: A medium was produced by partially modifying spinach redifferentiation medium composition reported in the literature (Jinhua Bao (2009) Establishment of Transformation System for Spinach based on Agrobacterium Method and Introduction of Useful Gene, Chiba University Graduate School doctoral dissertation), and was used in the experiment (Table 2). Non-transformed calluses induced from seedling sections of the Kd variety were cultured under preset conditions shown in Table 13. A “+” group for the redifferentiation inducing light condition was cultured in an incubator at 20° C. under 8-h light/16-h dark conditions, and a “−” group was placed in a steel can in an incubator under the same conditions, and was cultured under a light-shielding condition. In groups with GA concentrations of 1 and 2, non-transformed calluses were plated on redifferentiation media supplemented with gibberellin at 1 mg/L and 2 mg/L, respectively.
Transformed calluses were successfully formed in the mutant ghy variety incapable of synthesizing betalain pigments. In view of this, an attempt was made to induce redifferentiation from calluses of the mutant ghy. 2,4-Dichlorophenoxyacetic acid (2,4-D) serving as a plant hormone having an auxin-like action, and benzyladenine and kinetin each serving as a plant hormone having a cytokinin-like action were combined at various concentrations, and redifferentiation was attempted. […] In addition, when the concentrations of both of 2,4-D and the cytokinin-like plant hormone (benzyladenine or kinetin) were increased, hard and rounded calluses were obtained. […] However, redifferentiation of any other organ was not found.

Assay [2] has as its system quinoa (Kd, ghy, rebc, and ghy/rebc). The assay can be described thus: Floral dip/non-cutting-sealing method using improved bacterium, GUS staining of female organs. The format is in vivo, Chenopodium quinoa. The note with it: mutant ghy/rebc. As to the method: Bacteria used in the experiment were streaked on LB solid medium supplemented with 100 mg/L kanamycin and 100 mg/L hygromycin, and was cultured at 26° C. under a 24-h dark condition for 2 days (Table 3). The proliferated bacteria were transferred to 50 mL of LB liquid medium supplemented with 100 mg/L kanamycin and 100 mg/L hygromycin (in a 300 mL Erlenmeyer flask), and were cultured using a shaking thermostatic water bath BW201 under the conditions of 26° C., about 24 hours, and about 130 rpm. After the culture, the bacterial culture suspension (OD600=about 2.0) was transferred to a 50 mL conical tube, and centrifuged using Mx-301 Highspeed Refrigerated Micro Centrifuge (10 minutes, […]). The supernatant was discarded, followed by addition of 20 mL of a 5% (w/v) sucrose solution containing Silwet L-77 and resuspension using VORTEX-GENIE 2 to produce a bacterial suspension (results shown in Example 1 and results shown in Example 3 were obtained by inoculation experiments using Silwet L-77 at 0.02% (v/v) and 0.04% (v/v), respectively). At the time of inoculation with the bacterial suspension, quinoa to be used was placed in a sealed container (Mippail (Fuji System Pack, Tokyo, Japan)) filled with water, and the bacterial suspension was dropped onto an ear using P200 Pipetman (Gilson, Manhattan, NY, USA). […]

As for `O=C(O)COc1ccc(Cl)cc1Cl` [2,4-D, 2,4-Dichlorophenoxyacetic acid], the “Redifferentiation of adventitious roots” value in assay [1] (medium containing only 0.01 mg/L or 0.1 mg/L 2,4-D) is reported as “adventitious roots were redifferentiated”.
As for `CC1=CC(=O)CC(C)(C)[C@@]1(O)/C=C/C(C)=C\C(=O)O` [ABA, Abscisic acid], the “Individuals exhibiting female organ-specific GUS expression” value in assay [2] (500 mM ABA added to suspension of MAFF311303pTiMAFF301276ΔT-DNA, without cutting-sealing) was found to be 60%. Further, the “Female organ-specific GUS expression ratio relative to the case of adding no ABA” value in assay [2] (500 mM ABA vs no ABA) is on record as 6 times.
Regarding `c1ccc(CNc2ncnc3nc[nH]c23)cc1` [benzyladenine], the Colour of calluses in assay [1] (calluses plated in media containing the hormone) is listed as “turned darker green”. In assay [1] (medium containing only 1 mg/L or 2 mg/L benzyladenine), the “Redifferentiation of adventitious roots” value was “adventitious roots were redifferentiated”.
Regarding `c1coc(CNc2ncnc3[nH]cnc23)c1` [kinetin], the “Elongation of adventitious roots” value in assay [1] (medium containing only 1 mg/L kinetin) is listed as “showed remarkable elongation of adventitious roots”.
